Reference: ChEMBL document CHEMBL3808387, “Discovery of IWP-051, a Novel Orally Bioavailable sGC Stimulator with Once-Daily Dosing Potential in Humans” (ACS Med Chem Lett, 2016)
Values after ≈ are worked out from the molar mass of the structure shown.

Key:
[1] = biological target: Soluble guanylate cyclase (Homo sapiens) (UniProt Q02153+O75343+P33402+Q02108); experiment: Activation of SGC in HEK293 cells assessed as cGMP production at 30 uM after 20 mins by LC-MS/MS analysis in presence of NO-donor DETA-NONOate; type: cell-based
[2] = Intrinsic clearance in Sprague-Dawley rat liver microsomes assessed per mg of protein at 2 uM after 10 to 30 mins by LC/MS/MS analysis in presence of NADPH; type: ADME; conditions: read-out: CLH
[3] = Intrinsic clearance in human liver microsomes assessed per mg of protein at 2 uM after 10 to 30 mins by LC/MS/MS analysis in presence of NADPH; type: ADME; conditions: read-out: CLH
[4] = biological target: Soluble guanylate cyclase (Homo sapiens, UniProt O75343+P33402+Q02108+Q02153); experiment: Activation of SGC in HEK293 cells assessed as cGMP production after 20 mins by LC-MS/MS analysis in presence of NO-donor DETA-NONOate; type: cell-based
[5] = Dissociation constant, pKa of the compound; type: physicochemical
[6] = Thermodynamic solubility of the compound at pH 7.4; type: physicochemical; conditions: buffer, read-out: Therm_solubility
[7] = Thermodynamic solubility of the compound at pH 9.2; type: physicochemical; conditions: buffer, read-out: Therm_solubility
[8] = Apparent permeability of compound from apical to basolateral side; type: physicochemical; conditions: not told
[9] = biological target: Kappa-type opioid receptor (Homo sapiens, UniProt P41145); experiment: Binding affinity to KOP receptor (unknown origin) at 10 uM
[10] = biological target: Dual specificity calcium/calmodulin-dependent 3',5'-cyclic nucleotide phosphodiesterase 1B (Homo sapiens) (UniProt Q01064); experiment: Inhibition of PDE1B (unknown origin) at 10 uM
[11] = biological target: cGMP-dependent 3',5'-cyclic phosphodiesterase (Homo sapiens) (UniProt O00408); experiment: Inhibition of PDE2A (unknown origin) at 10 uM
[12] = biological target: cGMP-inhibited 3',5'-cyclic phosphodiesterase 3A (Homo sapiens) (UniProt Q14432); experiment: Inhibition of PDE3A (unknown origin) at 10 uM
[13] = biological target: 3',5'-cyclic-AMP phosphodiesterase 4D (Homo sapiens) (UniProt Q08499); experiment: Inhibition of PDE4D2 (unknown origin) at 10 uM
[14] = biological target: cGMP-specific 3',5'-cyclic phosphodiesterase (Homo sapiens) (UniProt O76074); experiment: Inhibition of PDE5 (unknown origin) at 10 uM
[15] = biological target: cAMP and cAMP-inhibited cGMP 3',5'-cyclic phosphodiesterase 10A (Homo sapiens) (UniProt Q9Y233); experiment: Inhibition of PDE10A (unknown origin) at 10 uM
[16] = Volume of distribution at steady state in CD-1 mouse at 0.1 mg/kg, iv or 1 mg/kg, po by LC-MS/MS analysis; type: ADME, organism-based; conditions: in vivo, read-out: Vdss
[17] = Volume of distribution at steady state in Sprague-Dawley rat at 0.1 mg/kg, iv or 1 mg/kg, po by LC-MS/MS analysis; type: ADME, organism-based; conditions: in vivo, read-out: Vdss
[18] = Volume of distribution at steady state in Beagle dog at 0.1 mg/kg, iv or 1 mg/kg, po by LC-MS/MS analysis; type: ADME, organism-based, Canis lupus familiaris; conditions: in vivo, read-out: Vdss
[19] = Tmax in CD-1 mouse at 0.1 mg/kg, iv or 1 mg/kg, po by LC-MS/MS analysis; type: ADME, organism-based; conditions: in vivo
[20] = Tmax in Sprague-Dawley rat at 0.1 mg/kg, iv or 1 mg/kg, po by LC-MS/MS analysis; type: ADME, organism-based; conditions: in vivo
[21] = Tmax in Beagle dog at 0.1 mg/kg, iv or 1 mg/kg, po by LC-MS/MS analysis; type: ADME, organism-based, Canis lupus familiaris; conditions: in vivo
[22] = Cmax in CD-1 mouse at 1 mg/kg, po by LC-MS/MS analysis; type: ADME, organism-based; design: dose 1 mg/kg, route oral; conditions: in vivo
[23] = Cmax in Sprague-Dawley rat at 1 mg/kg, po by LC-MS/MS analysis; type: ADME, organism-based; design: dose 1 mg/kg, route oral; conditions: in vivo
[24] = Cmax in Beagle dog at 1 mg/kg, po by LC-MS/MS analysis; type: ADME, organism-based, Canis lupus familiaris; design: dose 1 mg/kg, route oral; conditions: in vivo
[25] = AUC(0 to infinity) in CD-1 mouse at 0.1 mg/kg, iv or 1 mg/kg, po by LC-MS/MS analysis; type: ADME, organism-based; conditions: in vivo
[26] = AUC(0 to infinity) in Sprague-Dawley rat at 0.1 mg/kg, iv or 1 mg/kg, po by LC-MS/MS analysis; type: ADME, organism-based; conditions: in vivo
[27] = AUC(0 to infinity) in Beagle dog at 0.1 mg/kg, iv or 1 mg/kg, po by LC-MS/MS analysis; type: ADME, organism-based, Canis lupus familiaris; conditions: in vivo
[28] = Oral bioavailability in CD-1 mouse at 1 mg/kg by LC-MS/MS analysis; type: ADME, organism-based; conditions: in vivo
[29] = Oral bioavailability in Sprague-Dawley rat at 1 mg/kg by LC-MS/MS analysis; type: ADME, organism-based; conditions: in vivo
[30] = Oral bioavailability in Beagle dog at 1 mg/kg by LC-MS/MS analysis; type: ADME, organism-based, Canis lupus familiaris; conditions: in vivo
Rattus norvegicus [31] = experiment: fCmax in Sprague-Dawley rat at 1 mg/kg, po after 5 hrs by LC-MS/MS analysis; type: ADME, organism-based; conditions: in vivo
Rattus norvegicus [32] = experiment: Reduction in mean arterial pressure in po dosed normotensive Sprague-Dawley rat measured after 12 to 24 hrs; type: functional; conditions: Artery
Rattus norvegicus [33] = experiment: Reduction in mean arterial pressure in normotensive Sprague-Dawley rat at 10 mg/kg, po measured after 12 to 24 hrs; type: functional, Artery
Rattus norvegicus [34] = experiment: Reduction in mean arterial pressure in normotensive Sprague-Dawley rat at 30 mg/kg, po measured after 12 to 24 hrs; type: functional, Artery

Chain of Soluble guanylate cyclase (Q02153 whole entry): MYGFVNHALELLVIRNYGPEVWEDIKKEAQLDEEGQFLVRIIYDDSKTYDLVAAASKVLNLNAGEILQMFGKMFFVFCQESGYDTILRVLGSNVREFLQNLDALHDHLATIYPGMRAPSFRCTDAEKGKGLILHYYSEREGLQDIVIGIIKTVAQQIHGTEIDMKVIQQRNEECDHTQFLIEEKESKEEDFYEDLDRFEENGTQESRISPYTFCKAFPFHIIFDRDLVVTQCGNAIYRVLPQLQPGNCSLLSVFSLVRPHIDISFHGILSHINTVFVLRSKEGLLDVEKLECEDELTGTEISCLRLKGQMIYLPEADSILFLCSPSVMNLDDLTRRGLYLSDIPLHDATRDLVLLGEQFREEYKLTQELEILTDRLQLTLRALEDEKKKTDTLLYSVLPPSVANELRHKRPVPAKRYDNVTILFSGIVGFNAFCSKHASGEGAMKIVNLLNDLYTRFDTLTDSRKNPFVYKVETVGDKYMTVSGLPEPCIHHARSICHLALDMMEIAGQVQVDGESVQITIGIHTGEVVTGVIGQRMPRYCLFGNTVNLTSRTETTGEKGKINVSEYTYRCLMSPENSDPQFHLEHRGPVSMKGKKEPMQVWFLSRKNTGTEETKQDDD
Chain of Soluble guanylate cyclase (O75343 whole entry): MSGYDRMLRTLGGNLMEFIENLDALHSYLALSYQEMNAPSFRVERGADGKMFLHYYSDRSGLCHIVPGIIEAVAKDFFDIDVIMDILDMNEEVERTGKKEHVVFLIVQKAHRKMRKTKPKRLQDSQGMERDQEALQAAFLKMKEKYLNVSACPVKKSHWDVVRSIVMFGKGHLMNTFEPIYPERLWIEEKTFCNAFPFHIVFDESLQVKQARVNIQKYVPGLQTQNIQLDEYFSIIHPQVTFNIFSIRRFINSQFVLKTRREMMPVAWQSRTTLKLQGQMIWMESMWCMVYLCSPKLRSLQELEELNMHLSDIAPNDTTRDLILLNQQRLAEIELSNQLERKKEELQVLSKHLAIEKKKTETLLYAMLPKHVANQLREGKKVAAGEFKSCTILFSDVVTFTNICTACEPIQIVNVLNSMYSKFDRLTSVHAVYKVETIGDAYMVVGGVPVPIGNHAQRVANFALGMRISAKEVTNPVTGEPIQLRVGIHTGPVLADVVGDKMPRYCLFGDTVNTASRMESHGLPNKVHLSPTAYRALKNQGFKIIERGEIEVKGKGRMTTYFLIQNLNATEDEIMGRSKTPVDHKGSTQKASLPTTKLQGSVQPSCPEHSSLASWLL
Chain of Soluble guanylate cyclase (P33402 whole entry): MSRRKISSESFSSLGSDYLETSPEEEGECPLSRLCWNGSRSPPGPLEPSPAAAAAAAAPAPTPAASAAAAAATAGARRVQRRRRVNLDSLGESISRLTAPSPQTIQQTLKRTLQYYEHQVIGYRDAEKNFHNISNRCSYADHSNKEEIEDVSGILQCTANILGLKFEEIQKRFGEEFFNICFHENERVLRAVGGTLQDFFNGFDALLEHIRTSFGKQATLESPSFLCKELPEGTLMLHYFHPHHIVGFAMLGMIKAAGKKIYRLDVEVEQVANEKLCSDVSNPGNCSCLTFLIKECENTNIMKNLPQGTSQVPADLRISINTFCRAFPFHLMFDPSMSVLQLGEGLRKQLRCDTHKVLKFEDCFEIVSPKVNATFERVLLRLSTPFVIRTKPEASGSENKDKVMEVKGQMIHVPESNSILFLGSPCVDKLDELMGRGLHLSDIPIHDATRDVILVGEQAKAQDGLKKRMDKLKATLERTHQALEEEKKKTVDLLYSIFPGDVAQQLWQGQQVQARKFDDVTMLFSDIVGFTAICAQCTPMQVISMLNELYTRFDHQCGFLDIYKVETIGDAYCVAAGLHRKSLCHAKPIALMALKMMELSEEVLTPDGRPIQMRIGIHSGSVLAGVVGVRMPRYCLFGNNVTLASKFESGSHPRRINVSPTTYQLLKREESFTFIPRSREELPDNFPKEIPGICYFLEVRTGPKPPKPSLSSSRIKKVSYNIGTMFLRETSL
Chain of Soluble guanylate cyclase (Q02108 whole entry): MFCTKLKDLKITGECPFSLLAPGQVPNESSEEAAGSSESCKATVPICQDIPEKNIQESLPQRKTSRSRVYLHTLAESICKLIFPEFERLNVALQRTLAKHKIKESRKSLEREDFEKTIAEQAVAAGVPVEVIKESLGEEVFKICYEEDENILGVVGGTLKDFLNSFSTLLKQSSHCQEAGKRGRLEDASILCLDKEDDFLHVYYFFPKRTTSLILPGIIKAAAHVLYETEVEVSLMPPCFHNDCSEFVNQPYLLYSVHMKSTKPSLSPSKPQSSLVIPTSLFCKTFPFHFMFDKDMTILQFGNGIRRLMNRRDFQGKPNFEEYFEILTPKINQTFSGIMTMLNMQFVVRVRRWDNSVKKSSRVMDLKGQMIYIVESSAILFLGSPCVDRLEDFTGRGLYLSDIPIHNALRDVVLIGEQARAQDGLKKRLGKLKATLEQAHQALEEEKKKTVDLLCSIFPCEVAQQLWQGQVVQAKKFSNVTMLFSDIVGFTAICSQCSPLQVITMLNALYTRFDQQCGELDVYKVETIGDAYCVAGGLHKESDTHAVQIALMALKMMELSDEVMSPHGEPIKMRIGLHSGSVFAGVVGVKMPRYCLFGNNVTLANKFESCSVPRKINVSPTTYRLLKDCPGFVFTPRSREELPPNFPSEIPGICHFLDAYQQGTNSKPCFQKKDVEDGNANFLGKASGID
Chain of cAMP and cAMP-inhibited cGMP 3',5'-cyclic phosphodiesterase 10A (Homo sapiens) (Q9Y233 whole entry): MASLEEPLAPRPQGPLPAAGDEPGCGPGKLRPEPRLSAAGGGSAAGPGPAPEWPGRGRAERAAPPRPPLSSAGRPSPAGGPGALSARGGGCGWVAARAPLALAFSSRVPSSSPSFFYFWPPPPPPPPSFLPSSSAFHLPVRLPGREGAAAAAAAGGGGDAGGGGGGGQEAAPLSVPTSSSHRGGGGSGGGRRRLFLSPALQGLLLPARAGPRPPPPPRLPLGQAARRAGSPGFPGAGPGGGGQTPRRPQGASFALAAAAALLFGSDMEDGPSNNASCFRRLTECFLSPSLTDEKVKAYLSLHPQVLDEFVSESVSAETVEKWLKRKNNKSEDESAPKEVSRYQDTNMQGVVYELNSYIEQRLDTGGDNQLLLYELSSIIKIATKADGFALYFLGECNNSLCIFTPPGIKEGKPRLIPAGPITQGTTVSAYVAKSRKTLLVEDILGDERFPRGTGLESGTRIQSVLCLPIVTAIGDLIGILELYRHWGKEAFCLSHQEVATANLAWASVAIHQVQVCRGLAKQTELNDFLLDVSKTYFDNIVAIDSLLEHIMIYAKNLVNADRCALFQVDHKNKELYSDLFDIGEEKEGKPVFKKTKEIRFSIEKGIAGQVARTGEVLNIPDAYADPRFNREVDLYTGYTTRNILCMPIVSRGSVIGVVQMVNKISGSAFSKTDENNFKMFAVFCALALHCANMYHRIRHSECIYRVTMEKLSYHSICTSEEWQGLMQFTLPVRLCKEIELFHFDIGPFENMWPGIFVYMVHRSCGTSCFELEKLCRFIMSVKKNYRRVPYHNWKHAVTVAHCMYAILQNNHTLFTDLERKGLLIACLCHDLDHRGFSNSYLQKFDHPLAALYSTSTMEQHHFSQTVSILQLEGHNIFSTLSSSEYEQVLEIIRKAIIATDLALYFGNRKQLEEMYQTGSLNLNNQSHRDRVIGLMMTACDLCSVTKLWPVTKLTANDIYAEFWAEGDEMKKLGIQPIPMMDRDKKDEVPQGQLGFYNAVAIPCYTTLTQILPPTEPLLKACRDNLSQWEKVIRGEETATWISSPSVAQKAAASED
Chain of cGMP-dependent 3',5'-cyclic phosphodiesterase (Homo sapiens) (O00408 whole entry): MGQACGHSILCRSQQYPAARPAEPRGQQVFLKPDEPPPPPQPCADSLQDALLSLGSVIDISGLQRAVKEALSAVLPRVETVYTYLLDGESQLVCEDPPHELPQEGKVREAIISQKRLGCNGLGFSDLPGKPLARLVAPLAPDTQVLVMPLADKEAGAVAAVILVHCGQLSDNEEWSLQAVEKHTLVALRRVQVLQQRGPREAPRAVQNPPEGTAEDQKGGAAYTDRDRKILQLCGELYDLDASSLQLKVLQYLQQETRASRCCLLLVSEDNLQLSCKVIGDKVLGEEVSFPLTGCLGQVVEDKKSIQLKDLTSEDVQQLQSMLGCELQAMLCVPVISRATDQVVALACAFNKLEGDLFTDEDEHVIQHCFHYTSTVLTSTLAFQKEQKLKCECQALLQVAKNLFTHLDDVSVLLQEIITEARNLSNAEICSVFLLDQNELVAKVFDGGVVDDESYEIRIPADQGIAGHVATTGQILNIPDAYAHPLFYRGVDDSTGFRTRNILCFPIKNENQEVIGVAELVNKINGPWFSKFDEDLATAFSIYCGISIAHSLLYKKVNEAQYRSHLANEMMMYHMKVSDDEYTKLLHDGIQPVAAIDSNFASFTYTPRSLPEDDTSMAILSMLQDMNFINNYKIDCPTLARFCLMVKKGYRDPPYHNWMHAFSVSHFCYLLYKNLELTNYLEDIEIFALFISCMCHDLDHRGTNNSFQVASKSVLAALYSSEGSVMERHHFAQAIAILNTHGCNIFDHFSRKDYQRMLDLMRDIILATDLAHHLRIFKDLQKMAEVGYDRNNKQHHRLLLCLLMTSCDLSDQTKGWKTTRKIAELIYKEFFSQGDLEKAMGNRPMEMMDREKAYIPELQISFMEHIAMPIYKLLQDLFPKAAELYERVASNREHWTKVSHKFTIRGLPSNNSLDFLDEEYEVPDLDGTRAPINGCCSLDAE
Chain of Kappa-type opioid receptor (P41145 whole entry): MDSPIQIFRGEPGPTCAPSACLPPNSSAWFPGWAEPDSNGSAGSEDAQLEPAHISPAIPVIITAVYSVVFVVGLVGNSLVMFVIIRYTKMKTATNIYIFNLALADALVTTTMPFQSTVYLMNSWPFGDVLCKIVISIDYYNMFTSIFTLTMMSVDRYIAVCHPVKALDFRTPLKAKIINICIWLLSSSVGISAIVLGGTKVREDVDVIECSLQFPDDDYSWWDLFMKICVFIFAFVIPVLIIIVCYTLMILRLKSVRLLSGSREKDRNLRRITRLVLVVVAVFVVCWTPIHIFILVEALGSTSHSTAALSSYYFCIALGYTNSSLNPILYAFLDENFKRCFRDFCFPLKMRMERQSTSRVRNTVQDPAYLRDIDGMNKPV

## Oc1nc(-c2cc(-c3cocn3)n(Cc3ccccc3F)n2)ncc1F
[1]
  Emax: 78%
[2]
  microsomal CLint at 2 µM: 9 µL/min/mg
[3]
  microsomal CLint at 2 µM: 4 µL/min/mg

## Oc1nc(-c2cc(C3CC3)n(Cc3ccccc3F)n2)ncc1F
[1]
  Emax: 26%
[2]
  microsomal CLint at 2 µM: 10 µL/min/mg

## O=S(=O)(c1ccccc1)c1cnc(-c2cc(-c3ccon3)n(Cc3ccccc3F)n2)nc1O
[4]
  EC50: 0.35 µM
[2]
  microsomal CLint at 2 µM: 27 µL/min/mg
[3]
  microsomal CLint at 2 µM: 18 µL/min/mg

## N#Cc1cnc(-c2cc(-c3ccon3)n(Cc3ccccc3F)n2)nc1O
[4]
  EC50: 0.5 µM
[2]
  microsomal CLint at 2 µM: 14 µL/min/mg
[3]
  microsomal CLint at 2 µM: 8 µL/min/mg

## Oc1nc(-c2cc(-c3ccccn3)n(Cc3ccccc3F)n2)ncc1F
[1]
  Emax: 35%
[2]
  microsomal CLint at 2 µM: 39 µL/min/mg
[3]
  microsomal CLint at 2 µM: 9 µL/min/mg

## O=S(=O)(c1ccc(Cl)cc1)c1cnc(-c2cc(-c3ccon3)n(Cc3ccccc3F)n2)nc1O
[4]
  EC50: 0.16 µM
[2]
  microsomal CLint at 2 µM: 15 µL/min/mg
[3]
  microsomal CLint at 2 µM: 6 µL/min/mg

## Oc1nc(-c2cc(-c3ccon3)n(Cc3ccccc3F)n2)ncc1F
[5]
  pKa: 5.75
[6]
  solubility thermodynamic: 3 µg/mL (≈ 8.44 µM)
[7]
  solubility thermodynamic: 142 µg/mL (≈ 400 µM)
[8]
  Papp A→B: 21.8 ×10⁻⁶ cm/s
[9]
  Activity: 21%
[10]
  inhibition: < 30%
[11]
  inhibition: < 30%
[12]
  inhibition: < 30%
[13]
  inhibition: < 30%
[14]
  inhibition: < 30%
[15]
  inhibition: < 30%
[16]
  Vd: 1.3 L/kg
[17]
  Vd: 0.18 L/kg
[18]
  Vd: 0.095 L/kg
[19]
  Tmax: 1.7 h
[20]
  Tmax: 5.3 h
[21]
  Tmax: 3.3 h
[22]
  Cmax: 1000 ng/mL
[23]
  Cmax: 1500 ng/mL
[24]
  Cmax: 3500 ng/mL
[25]
  AUC(0-inf): 4500 ng·h/mL
[26]
  AUC(0-inf): 25000 ng·h/mL
[27]
  AUC(0-inf): 41700 ng·h/mL
[28]
  bioavailability: > 100%
[29]
  bioavailability: 96%
[30]
  bioavailability: 45%
Rattus norvegicus [31]
  fCmax: 80 nM
Rattus norvegicus [32]
  Activity: Dose-dependent effect
Rattus norvegicus [32]; read-out: MED
  minimal effective dose: 1 mg/kg
Rattus norvegicus [33]
  Activity: 10 mmHg
Rattus norvegicus [34]
  Activity: -30 mmHg

## CN(C)S(=O)(=O)c1cnc(-c2cc(-c3ccon3)n(Cc3ccccc3F)n2)nc1O
[1]
  Emax: 87%
[2]
  microsomal CLint at 2 µM: 24 µL/min/mg
[3]
  microsomal CLint at 2 µM: 8 µL/min/mg

## Oc1nc(-c2cc(-c3ncon3)n(Cc3ccccc3F)n2)ncc1F
[1]
  Emax: 68%
[2]
  microsomal CLint at 2 µM: 4 µL/min/mg

## O=c1[nH]c(-c2cc(-c3ccon3)n(Cc3cccc(Cl)c3F)n2)ncc1F
[4]
  EC50: 0.38 µM
[2]
  microsomal CLint at 2 µM: 2 µL/min/mg
[3]
  microsomal CLint at 2 µM: 5 µL/min/mg

## COc1nc(-c2cc(-c3ccon3)n(Cc3ccccc3F)n2)ncc1F
[3]
  microsomal CLint at 2 µM: 20 µL/min/mg

## Oc1nc(-c2cc(-c3ccon3)n(Cc3ccccc3F)n2)ncc1C(F)(F)F
[1]
  Emax: 54%
[2]
  microsomal CLint at 2 µM: 20 µL/min/mg
[3]
  microsomal CLint at 2 µM: 19 µL/min/mg

## Oc1nc(-c2cc(-c3ccon3)n(Cc3ncccc3F)n2)ncc1F
[1]
  Emax: 44%
[2]
  microsomal CLint at 2 µM: 7 µL/min/mg
[3]
  microsomal CLint at 2 µM: 15 µL/min/mg

## Oc1nc(-c2cc(-c3ccon3)n(Cc3ccccc3)n2)ncc1F
[4]
  EC50: 0.88 µM
[2]
  microsomal CLint at 2 µM: 10 µL/min/mg
[3]
  microsomal CLint at 2 µM: 11 µL/min/mg

## O=c1[nH]c(-c2cc(-c3ccon3)n(Cc3ccc(F)cc3F)n2)ncc1F
[4]
  EC50: 0.53 µM
[2]
  microsomal CLint at 2 µM: 4 µL/min/mg
[3]
  microsomal CLint at 2 µM: 4 µL/min/mg

## N#Cc1cc(-c2ncc(F)c(O)n2)nn1Cc1ccccc1F
[1]
  Emax: 73%
